Data reported in publication PMC8161026, “Synthesis and Anticancer Activity Evaluation of 5-[2-Chloro-3-(4-nitrophenyl)-2-propenylidene]-4-thiazolidinones” (Molecules, 2021).

Experiments:
[1] = test system: MOLT-4; assay: cells; settings: Homo sapiens, MOLT-4, 48 h
[2] = test system: SK-MEL-2; settings: SK-MEL-2 (Melanoma), 48 h, SRB
[3] = test system: EKVX; settings: EKVX (Non-Small Cell Lung Cancer), 48 h, SRB
[4] = test system: K-562; settings: K-562 (Leukemia), 48 h, SRB
[5] = test system: SR; assay: cells; settings: Homo sapiens, 48 h
[6] = test system: RPMI-8226; settings: RPMI-8226 (Leukemia), 48 h, SRB
[7] = test system: EKVX; assay: cells; settings: Homo sapiens, 48 h
[8] = test system: IGROV1; assay: NCI DTP 60 cell line screen, SRB
[9] = test system: Colon Cancer subpanel; assay: cells
Experimental: (§1) At the first stage of biological activity study, the antitumor activity screening of the selected compounds 2b, 2c, 2f, 2h, and 2j was performed according to the NCI DTP (USA) standard protocol at the concentrations ranging from 10^−4 to 10^−8 M toward 60 tumor cell lines. The percentage of growth was evaluated spectrophotometrically versus controls not treated with test agents after 48 h exposure and using SRB protein assay to estimate cell viability or growth. Dose–response parameters were calculated for each cell line: GI50—molar concentration of the compound that inhibits 50% net cell growth; TGI—molar concentration of the compound leading to the total inhibition; and LC50—molar concentration of the compound leading to 50% net cell death. Furthermore, mean graph midpoints (MG_MID) were calculated for each of the parameters, giving an average activity parameter over all cell lines for the tested compound. For the MG_MID calculation, insensitive cell lines were included with the highest concentration tested.
(§2) The selectivity index (SI) obtained by dividing the full panel MG-MID (mM) of the tested compound by their individual subpanel MG-MID (mM) was considered as a measure of selectivity of anticancer activity (Table 3).
(§3) Primary anticancer assay was performed on a panel of approximately sixty human tumor cell lines derived from nine neoplastic diseases, in accordance with the protocol of the Drug Evaluation Branch, National Cancer Institute, Bethesda. Tested compounds were added to the culture at a single concentration (10^−5 M) and the cultures were incubated for 48 h. End point determinations were made with a protein binding dye, sulforhodamine B (SRB). […] The percentage growth was evaluated spectrophotometrically versus controls not treated with test agents.
(§4) Dose–response parameters (GI50, TGI, LC50) were calculated for each compound. […] The drug concentration resulting in total growth inhibition (TGI) was calculated from Ti = Tz. The LC50 (concentration of drug resulting in a 50% reduction in the measured protein at the end of the drug treatment as compared to that at the beginning) indicating a net loss of cells following treatment was calculated from [(Ti − Tz)/Tz] × 100 = −50 (2). Values were calculated for each of these parameters if the level of activity was reached; however, if the effect was not reached or was excessive, the value for that parameter was expressed as more or less than the maximum or minimum concentration tested.

[10] = test system: Leukemia subpanel; assay: cells
Experimental: as §1, §2, §3, §4

[11] = test system: Breast Cancer subpanel; assay: cells
Experimental: as §1, §2, §3, §4

[12] = test system: Prostate Cancer subpanel; assay: cells
Experimental: as §1, §2, §3, §4

[13] = test system: Ovarian Cancer subpanel; assay: cells
Experimental: as §1, §2, §3, §4

[14] = test system: Renal Cancer subpanel; assay: cells
Experimental: as §1, §2, §3, §4

[15] = test system: Melanoma subpanel; assay: cells
Experimental: as §1, §2, §3, §4

[16] = test system: Non-Small Cell Lung Cancer subpanel; assay: cells
Experimental: as §1, §2, §3, §4

[17] = test system: CNS Cancer subpanel; assay: cells
Experimental: as §1, §2, §3, §4

[18] = test system: OVCAR-8; assay: NCI DTP 60 cell line screen, SRB
[19] = test system: PC-3; assay: cells; settings: Homo sapiens, PC-3, 48 h
[20] = test system: K-562; assay: cells; settings: Homo sapiens, K562, 48 h
[21] = test system: NCI-H226; assay: NCI DTP 60 cell line screen, SRB
[22] = Homo sapiens, read-out: MG_MID, GI50
[23] = Homo sapiens, read-out: MG_MID, LC50
[24] = full panel MG_MID / Colon Cancer subpanel MG_MID
[25] = full panel MG_MID / Leukemia subpanel MG_MID
[26] = full panel MG_MID / Breast Cancer subpanel MG_MID
[27] = full panel MG_MID / Prostate Cancer subpanel MG_MID
[28] = full panel MG_MID / Ovarian Cancer subpanel MG_MID
[29] = full panel MG_MID / Renal Cancer subpanel MG_MID
[30] = full panel MG_MID / Melanoma subpanel MG_MID
[31] = full panel MG_MID / Non-Small Cell Lung Cancer subpanel MG_MID
[32] = full panel MG_MID / CNS Cancer subpanel MG_MID

Compound `O=C1/C(=C/C(Cl)=C/c2ccc([N+](=O)[O-])cc2)SC(=S)N1/N=C\C(Cl)=C\c1ccc([N+](=O)[O-])cc1` [Compound 2c, 5-[(Z,2Z)-2-Chloro-3-(4-nitrophenyl)-2-propenylidene]-3-[(Z,2Z)-2-chloro-3-(4-nitrophenyl)-2-propenylideneamino]-2-thioxo-4-thiazolidinone] has a GI50 [1] of 3.2 µM, a CC50 ([1]; read-out: LC50) of 52.5 µM and a TGI [2] of 36.4 µM. The TGI [3] was 47.7 µM, the TGI [4] was 25.5 µM and the GI50 [5] was 3.67 µM. The CC50 ([5]; read-out: LC50) was > 100 µM, the TGI [6] was 6.32 µM and the GI50 [7] was 23.7 µM. It also gave a CC50 ([7]; read-out: LC50) of 96.1 µM, a GI50 ([8]; Homo sapiens, IGROV-1, 48 h) of 13.3 µM and a CC50 ([8]; Homo sapiens, IGROV-1, 48 h, read-out: LC50) of 58.9 µM. For the same compound, the TGI ([8]; IGROV1 (Ovarian Cancer), 48 h, SRB) was 28.0 µM, the “MG_MID, TGI” value ([9]; Colon Cancer panel mean) was 59.7 µM and the GI50 [9, 22] was 20.7 µM. For the same compound, the CC50 [9, 23] was 77.8 µM, the “SI (selectivity index), GI50” value [9, 24] was 0.87 and the “SI (selectivity index), LC50” value [9, 24] was 1.05. The “SI (selectivity index), TGI” value [9, 24] was 0.72, the GI50 [10, 22] was 3.83 µM and the CC50 [10, 23] was 90 µM. The “MG_MID, TGI” value ([10]; Leukemia panel mean) was 18.6 µM, the “SI (selectivity index), GI50” value [10, 25] was 4.70 and the “SI (selectivity index), LC50” value [10, 25] was 0.91. For the same compound, the “SI (selectivity index), TGI” value [10, 25] was 2.32, the “MG_MID, TGI” value ([11]; Breast Cancer panel mean) was 51.3 µM and the GI50 [11, 22] was 17.5 µM. The CC50 [11, 23] was 90.2 µM, the “SI (selectivity index), GI50” value [11, 26] was 1.03 and the “SI (selectivity index), LC50” value [11, 26] was 0.91. For the same compound, the “SI (selectivity index), TGI” value [11, 26] was 0.84, the GI50 [12, 22] was 14.9 µM and the “SI (selectivity index), GI50” value [12, 27] was 1.21. The “SI (selectivity index), LC50” value [12, 27] was 1.09, the “SI (selectivity index), TGI” value [12, 27] was 0.95 and the GI50 [13, 22] was 18.2 µM. For the same compound, the CC50 [13, 23] was 59 µM, the “MG_MID, TGI” value ([13]; Ovarian Cancer panel mean) was 36.2 µM and the “SI (selectivity index), GI50” value [13, 28] was 0.99. For the same compound, the “SI (selectivity index), LC50” value [13, 28] was 1.38, the “SI (selectivity index), TGI” value [13, 28] was 1.19 and the GI50 [14, 22] was 16.9 µM. The CC50 [14, 23] was 80.1 µM, the “MG_MID, TGI” value ([14]; Renal Cancer panel mean) was 43.3 µM and the “SI (selectivity index), GI50” value [14, 29] was 1.07. The “SI (selectivity index), LC50” value [14, 29] was 1.02, the “SI (selectivity index), TGI” value [14, 29] was 1.00 and the GI50 [15, 22] was 17.7 µM. For the same compound, the CC50 [15, 23] was 74.3 µM, the “MG_MID, TGI” value ([15]; Melanoma panel mean) was 38.0 µM and the “SI (selectivity index), GI50” value [15, 30] was 1.02. The “SI (selectivity index), LC50” value [15, 30] was 1.10, the “SI (selectivity index), TGI” value [15, 30] was 1.13 and the GI50 [16, 22] was 25.9 µM. For the same compound, the CC50 [16, 23] was 83 µM, the “MG_MID, TGI” value ([16]; Non-Small Cell Lung Cancer panel mean) was 44.8 µM and the “SI (selectivity index), GI50” value [16, 31] was 0.69. For the same compound, the “SI (selectivity index), LC50” value [16, 31] was 0.98, the “SI (selectivity index), TGI” value [16, 31] was 0.96 and the “MG_MID, TGI” value ([17]; CNS Cancer panel mean) was 52.1 µM. For the same compound, the GI50 [17, 22] was 23.4 µM, the CC50 [17, 23] was 88.6 µM and the “SI (selectivity index), GI50” value [17, 32] was 0.77. For the same compound, the “SI (selectivity index), LC50” value [17, 32] was 0.92, the “SI (selectivity index), TGI” value [17, 32] was 0.83 and the GI50 ([18]; Homo sapiens, OVCAR-8, 48 h) was 1.98 µM. For the same compound, the CC50 ([18]; Homo sapiens, OVCAR-8, 48 h, read-out: LC50) was 8.38 µM, the TGI ([18]; OVCAR-8 (Ovarian Cancer), 48 h, SRB) was 4.08 µM and the GI50 [19] was 8.1 µM. The CC50 ([19]; read-out: LC50) was > 100 µM, the GI50 [20] was 3.98 µM and the CC50 ([20]; read-out: LC50) was > 100 µM. It also gave a GI50 ([21]; Homo sapiens, NCI-H226, 48 h) of 12 µM, a CC50 ([21]; Homo sapiens, NCI-H226, 48 h, read-out: LC50) of 84.2 µM and a TGI ([21]; NCI-H226 (Non-Small Cell Lung Cancer), 48 h, SRB) of 31.8 µM.
